Reference: paper PMC9496042 (2022)

How the values were obtained:
[1] = system: Apt-14t (DNA, aptamer) ACGGCCAGTGGGTGGGGCGGGTGGCGGCCGGTTGTTTCTATGC; assay: graphene oxide fluorescence recovery (FAM); conditions: 100 mM NaCl, 5 mM KCl, 2 mM MgCl2, 1 mM CaCl2; for binding: binding buffer pH 7.6, 100 nM aptamer, 1 µM compound
[2] = system: Apt-14t (AuNP assay) (DNA, aptamer) ACGGCCAGTGGGTGGGGCGGGTGGCGGCCGGTTGTTTCTATGC; assay: AuNP colorimetry (A650/A520); conditions: 100 mM NaCl, 5 mM KCl, 2 mM MgCl2, 1 mM CaCl2; binding buffer pH 7.6, 37 °C; 200 nM aptamer; NaCl added after binding to aggregate AuNPs
[3] = system: Apt-14 (DNA, aptamer) GCTGTGTGACTCCTGCAAACGGCCAGTGGGTGGGGCGGGTGGCGGCCGGTTGTTTCTATGCGCAGCTGTATCTTGTCTCC; assay: graphene oxide fluorescence recovery (FAM); conditions: 100 mM NaCl, 5 mM KCl, 2 mM MgCl2, 1 mM CaCl2; 20 mM Tris-HCl pH 7.6 (binding buffer); aptamer titrated at fixed FF (1 M [sic]); GO:ssDNA 20:1
[4] = system: Apt-1 (DNA, aptamer) GCTGTGTGACTCCTGCAAGGTCCTCGGGTGGTGGGTGGGCTCGGGTTTTTGTTCACTCTCCGCAGCTGTATCTTGTCTCC; assay: graphene oxide fluorescence recovery (FAM); conditions: 100 mM NaCl, 5 mM KCl, 2 mM MgCl2, 1 mM CaCl2; 20 mM Tris-HCl pH 7.6 (binding buffer); aptamer titrated at fixed FF (1 M [sic])
[5] = system: Apt-15 (DNA, aptamer) GCTGTGTGACTCCTGCAACACGAACGTTTCCGTGGGTGGGTGGGTGGCCAAATGTCGCGTGGCAGCTGTATCTTGTCTCC; assay: graphene oxide fluorescence recovery (FAM); conditions: 100 mM NaCl, 5 mM KCl, 2 mM MgCl2, 1 mM CaCl2; 20 mM Tris-HCl pH 7.6 (binding buffer); aptamer titrated at fixed FF (1 M [sic])
[6] = system: Apt-20 (DNA, aptamer) GCTGTGTGACTCCTGCAAGCGCAATGATGTGTTGTGGGTGGGCGGGTGGCTCATTGCGTGGGCAGCTGTATCTTGTCTCC; assay: graphene oxide fluorescence recovery (FAM); conditions: 100 mM NaCl, 5 mM KCl, 2 mM MgCl2, 1 mM CaCl2; 20 mM Tris-HCl pH 7.6 (binding buffer); aptamer titrated at fixed FF (1 M [sic])

| SMILES | binding [1] | binding [2] | Kd [3] [nM] | Kd ([1]; 20 mM Tris-HCl pH 7.6 (binding buffer), aptamer titrated 0-200 nM at fixed FF (1 M [sic])) [nM] | Kd [4] [nM] | Kd [5] [nM] | Kd [6] [nM] |
| --- | --- | --- | --- | --- | --- | --- | --- |
| CS(=O)(=O)c1ccc([C@@H](O)[C@@H](CO)NC(=O)C(Cl)Cl)cc1 | weak |  |  |  |  |  |  |
| CS(=O)(=O)c1ccc([C@@H](O)[C@@H](CF)NC(=O)C(Cl)Cl)cc1 |  | yes | 34.65 ± 5.7 | 4.66 ± 0.75 | 70.90 ± 22.36 | 57.41 ± 18.0 | 59.44 ± 16.9 |
| O=C(N[C@H](CO)[C@H](O)c1ccc([N+](=O)[O-])cc1)C(Cl)Cl | weak |  |  |  |  |  |  |
| CS(=O)(=O)c1ccc([C@@H](O)[C@H](N)CF)cc1 | yes | yes |  |  |  |  |  |
